Measurements: US9932339B2, “Helquats with heteroaromatic substituents, preparation thereof, and use thereof as G-quadruplex stabilizers” (USTAV ORGANICKE CHEMIE A BIOCHEMIE AV CR, V.V.I., priority 2014, dated 2018)

System: G-quadruplex in promoter region of the c-myc gene (NHE III1 segment)
Assay: Dual luciferase analysis with plasmid pGL4.10-myc (luc2) in HGC-27 cells
Format: cell-based, human
Conditions: for inhibition at 50 µM / activity at 50 µM: Homo sapiens; for inhibition at 50 µM: HGC-27, text summary of tab. 5 (50 μmol·l^−1), read-out: inhibition of expression of firefly luciferase as compared to control; for activity at 50 µM: read-out: luciferase expression relative to control (control = 100%)
Source text: A dual luciferase analysis was used to determine the degree of stabilization of G-quadruplex in a promoter region of the c-myc gene on cellular level. Stabilization of G-quadruplex is expressed as the ratio of expression of two luciferases (firefly and Renilla) from the co-transfected vectors pGL4.10-myc (luc2) and pRL-TK (Renilla) into a cell line HGC-27 expressing c-myc protein. Expression of the reporter gene (firefly luciferase) from pGL4.10-myc vector is controlled by the c-myc regulatory region of a length of 860 by (in the range from −306 to +554). The inserted sequence contains NHE III1 segment which forms G-quadruplex [Yang, D. et al. (2010) Future Med Chem., 2, 619], and is responsible for as much as 90% of the transcriptional activity of the c-myc gene.
Level of expression of firefly luciferase reporter gene corresponds to promoter activity of c-myc and thus to the degree of stabilization of the G-quadruplex. The signal is normalized to Renilla luciferase expression from pRL-TK vector under the control of a constitutive viral thymidine kinase (HSV-TK) promoter. The amount of Renilla luciferase expression serves as an internal control for normalization of firefly signal on transfection efficiency in the sample. Plasmids pGL4.10-myc (luc2) and pRL-TK were propagated in Escherichia coli (DH5α strain) and purified using the Qiagen Plasmid Mini and Midi kits. Cells were cultured under standard conditions and in exponential growth phase were seeded into a white 96-well microtiter plates. Transfection was carried out using a transfection reagent X-tremeGENE HP DNA in OptiMEM media for two hours. The ratio of reporter and control vector was 1:1 and the ratio of transfection reagent to the total amount of DNA was 1:1. Two hours after transfection helquats were added in a concentration of 50 μmol·l^−1. Quantity of firefly and Renilla luciferases in the samples was determined 24 hours after transfection. Dual luciferase analysis was performed using a commercially available kit (Promega, cat. No. E1960) according to manufacturer's instructions. Luminescence was measured using a luminometer EnSpire Alpha Plate Reader. The data obtained were normalized to the Renilla luciferase signal and then the values were related to control.

[1] = helquat 50 μmol · l^−1, HGC-27, firefly normalized to Renilla, 24 hours after transfection

With “2,13-bis((E)-2-(5-bromothiophen-2-yl)vinyl-8,9-dimethyl-6,7,10,11-tetrahydrodipyrido[2,1-a: 1′,2′-k][2,9]phenanthroline-5,12-diium trifluoromethanesulfonate [MJB-C5-3]” the “luciferase expression relative to control (control = 100%)” value [1] was 65%.
`C(=C\c1cc(/C=C/c2ccsc2)[n+]2c(c1)-c1c(ccc3c1-c1cccc[n+]1CC3)CC2)/c1ccsc1` [HTA-C5-9, 2,4-bis((E)-2-(thiophen-3-yl)vinyl)-6,7,10,11-tetrahydrodipyrido[2,1-a:1′,2′-k][2,9]phenanthroline-5,12-diium trifluoromethanesulfonate] was tested, and the inhibition at 50 µM was over 10% and the activity at 50 µM [1] was 85%.
For `Cc1c(C)c2c(c3c1CC[n+]1ccc(/C=C/c4c[nH]c5ccc(Br)cc45)cc1-3)-c1c3ccccc3cc[n+]1CC2` [MJA-C9-30, (E)-13-(2-(5-bromo-1H-indol-3-yl)vinyl)-6,7-dimethyl-4,5,8,9-tetrahydroisoquinolino[1,2-a]pyrido[1,2-k][2,9]phenanthroline-3,10-diium trifluoromethanesulfonate], the inhibition at 50 µM was over 40% and the activity at 50 µM [1] was 55%.
